Like-named read-outs stand apart in the source and are kept apart here.
Legend:
[1] = system: live fire ant colony; test: Test 8: ethanol and water; trans-dichloroethylene/ethanol solution then Diazinon solution; parameters: species or system Red Fire Ant; settings: in vivo
From the text: In eighth and ninth tests, the method of the seventh test was duplicated using two other alcohols, namely ethanol and isopropanol.

[2] = system: live fire ant colony; settings: in vivo
[3] = system: active fire ant colonies; test: Test 7: methanol alone; trans-dichloroethylene/methanol solution then Diazinon solution; format: in vivo, Red Fire Ant; settings: for fire ant activity upon surface of mound: upon wetting first mound (about 5 inches) with the alcohol alone
Experimental: In the seventh test, active fire ant colonies were treated with methanol and then with a mixture of methanol plus trans-dichloroethylene. Additionally, an aqueous Diazinon® solution was applied to a targeted mound following application of the latter mixture. First, an active fire ant mound, approximately 5 inches in diameter, was treated with enough methanol to wet the surface of the mound. […] Then a solution of three parts methanol to one part trans-dichloroethylene was applied to the surface of a second fire ant mound approximately 8 inches in diameter. […] After five minutes, the second mound was pierced in several places with a steel shaft. A Diazinon® solution was then applied to the mound. At no time were ants observed exiting the second mound.

[4] = system: fire ant colony; test: Test 1: trans-dichloroethylene/vegetable oil mixture poured on fire ant colony in 2-gallon flowerpot; format: in vivo, Red Fire Ant
Experimental: These tests were conducted on active fire ant mounds located primarily upon an acre tract of residential property in Lake Charles, La.
In the first test, a mixture of 1 part trans-dichloroethylene to 2 parts vegetable oil (liquid Crisco® brand vegetable oil) was used. A fire ant colony that had established itself within a 2-gallon flowerpot was treated with approximately 1 cup of a trans-dichloroethylene/vegetable oil mixture. The technique involved pouring the liquid mixture onto the surface of the targeted fire ant mound. Observations of fire ant activity were made upon application and following application of the mixture. Afterward, the contents of the infested flower pot were emptied upon a flat, ply-wood surface and dissected. The following results of individual fire ant activity within the treated soil were observed: […]

[5] = system: active fire ant mound; test: General experimental method: knockout agent mixture then insecticide on fire ant mound, excavation of plugs; format: in vivo, Red Fire Ant; settings: applied superficially to a fire ant mound
From the text: The experimental method used herein entailed first preparing a mixture of 1 part trans-dichloroethylene (knockout agent) and 2 parts vegetable oil (liquid Crisco® was the vegetable oil most often used in the test) and then applying the mixture to the surface of an active fire ant mound 12 inches or less in surface diameter. The oil with the knockout agent is preferably biodegradable and miscible with the knockout agent. Units of measure are in pints, with the mixture comprising approximately ½ pint trans-dichloroethylene for every pint of vegetable oil. Approximately one-quarter (¼) pint of the trans-dichloroethylene/vegetable oil mixture was applied to a fire-ant hill about 12-inches in surface diameter.
The next step entailed applying a suitable insecticide to the fire ant mound. The insecticide was a commercially available Diazinon® applied one of two forms onto a fire ant mound that had been treated with the trans-dichloroethylene mixture. […]
Following all of these tests, the targeted fire ant colonies were excavated in the form of plugs. These “plugs” of excavated earth that had comprised the fire ant colony measured about 12″×12″×12. […] Hundreds, if not thousands, of dead individual worker ants, dead ant larvae and eggs were detected. […]

With `CCO` [anhydrous ethanol, ethanol] the “knock out of fire ants within a targeted mound (conclusion)” value (“knock out” below) [1] was “neither serves to knock out fire ants”.
`CC(C)O` [anhydrous isopropanol, isopropanol] was tested, and the “knock out” value [2] was “neither serves to knock out fire ants”.
In the case of `CO` [methanol], the “knock out” value ([3]; in vivo) is reported as “does not serve to knockout fire ants”, the “fire ant activity upon surface of mound” value [3] is reported as “observed exiting the mound” and the “fire ant activity upon surface of mound” value ([3]; listed as pure ethanol) is reported as “Significant fire ant activity”.
With `Cl/C=C/Cl` [trans-dichloroethylene] the “toxicity to fire ants (conclusion)” value ([4]; small dosages, short periods of exposure) was “not itself toxic to fire ants”, the “evaporation from treated soil” value ([4]; treated soil exposed to the open air) was “rapidly evaporates” and the “incapacitation of individual insects in targeted fire ant mound” value [5] was “completely incapacitated”.
